Reference: ChEMBL document CHEMBL1159291, “Bioactive Constituents from the Flower Buds and Peduncles of Lindera megaphylla” (J Nat Prod, 1995)
Values belong to the compound of their own block, whether it stands above or below them.

Key:
Aorta [1] = assay: Inhibition of norepinephrine-induced contraction in Wistar rat aorta assessed as contraction at 1 uM preincubated 15 mins before addition of norepinephrine relative to control; type: functional; set-up: scale not given: the % may be the effect or the level left
Aorta [2] = assay: Inhibition of KCl-induced contraction in Wistar rat aorta assessed as contraction at 1 uM preincubated 15 mins before addition of KCl relative to control; type: functional; set-up: scale not given: the % may be the effect or the level left
Platelet [3] = assay: Inhibition of arachidonic acid-induced rabbit platelet aggregation assessed as aggregation at 50 uM by turbidimetric method; type: functional, Oryctolagus cuniculus; set-up: scale not given: the % may be the effect or the level left
Platelet [4] = assay: Inhibition of collagen-induced rabbit platelet aggregation assessed as aggregation at 50 uM by turbidimetric method; type: functional, Oryctolagus cuniculus; set-up: scale not given: the % may be the effect or the level left
Platelet [5] = assay: Inhibition of arachidonic acid-induced rabbit platelet aggregation assessed as aggregation at 300 uM preincubated 3 mins before arachidonic acid challenge by turbidimetric method; type: functional, Oryctolagus cuniculus; set-up: scale not given: the % may be the effect or the level left
Aorta [6] = assay: Inhibition of norepinephrine-induced contraction in Wistar rat aorta assessed as contraction at 60 uM preincubated 15 mins before addition of norepinephrine relative to control; type: functional; set-up: scale not given: the % may be the effect or the level left
Aorta [7] = assay: Inhibition of KCl-induced contraction in Wistar rat aorta assessed as contraction at 60 uM preincubated 15 mins before addition of KCl relative to control; type: functional; set-up: scale not given: the % may be the effect or the level left
Platelet [8] = assay: Inhibition of collagen-induced rabbit platelet aggregation assessed as aggregation at 300 uM preincubated 3 mins before collagen challenge by turbidimetric method; type: functional, Oryctolagus cuniculus; set-up: scale not given: the % may be the effect or the level left
Aorta [9] = assay: Inhibition of KCl-induced contraction in Wistar rat aorta assessed as contraction at 120 uM preincubated 15 mins before addition of KCl relative to control; type: functional; set-up: scale not given: the % may be the effect or the level left
Aorta [10] = assay: Inhibition of norepinephrine-induced contraction in Wistar rat aorta assessed as contraction at 120 uM preincubated 15 mins before addition of norepinephrine relative to control; type: functional; set-up: scale not given: the % may be the effect or the level left
[11] = Induction of rabbit platelet aggregation at 300 uM by turbidimetric method; type: cell-based, Oryctolagus cuniculus
Aorta [12] = assay: Inhibition of norepinephrine-induced contraction in Wistar rat aorta assessed as contraction at 9 uM preincubated 15 mins before addition of norepinephrine relative to control; type: functional; set-up: scale not given: the % may be the effect or the level left
Aorta [13] = assay: Inhibition of KCl-induced contraction in Wistar rat aorta assessed as contraction at 9 uM preincubated 15 mins before addition of KCl relative to control; type: functional; set-up: scale not given: the % may be the effect or the level left

SMILES: COC(=O)C1=C(C)NC(C)=C(C(=O)OC)C1c1ccccc1[N+](=O)[O-] [NIFEDIPINE]
Activity (Aorta [1]): 96.5% | Activity (Aorta [2]): 0%

SMILES: CC(=O)Oc1ccccc1C(=O)O [ASPIRIN]
Activity (Platelet [3]): 0% | Activity (Platelet [4]): 85.4%

SMILES: COc1ccc2c(c1OC)-c1c3c(cc4c1[C@H](C2)N(C)CC4)OCO3
Activity (Platelet [5]): 73% | Activity (Aorta [6]): 68.1% | Activity (Aorta [7]): 88.5% | Activity (Platelet [8]): 60.8% | Activity (Aorta [9]): 55.2% | Activity (Aorta [10]): 22.9%

Activity [11]: Not Active
SMILES: COc1cc2c(cc1OC)-c1c3c(cc4ccnc(c14)C2=O)OCO3 [DICENTRINONE]
Activity (Aorta [9]): 102.1% | Activity (Aorta [10]): 112.4%

SMILES: COc1cc2c(cc1OC)-c1c3c(cc4c1[C@H](C2)N(C)CC4)OCO3 [DICENTRINE]
Activity (Platelet [5]): 0% | Activity (Platelet [8]): 3.1% | Activity (Aorta [12]): 22.5% | Activity (Aorta [13]): 77.5%

Activity [11]: Not Active
SMILES: COc1cc2cc3c4c(cc5c(c4c2cc1OC)OCO5)CCN3C [DEHYDRODICENTRINE]
Activity (Aorta [9]): 108% | Activity (Aorta [10]): 95.5%
